The values below come from ChEMBL document CHEMBL1201862, “PubChem BioAssay data set” (2004).

Molecules are shown by their SMILES. Activity calls are given as the source filed them. Some results are limits rather than exact numbers.

The test system of assay [1] is HEK293. The experiment in a line: NOD1 signaling inhibitors, primary screen, cell-based, luminescence, uHTS (AID 1578). Format: functional. To be noted: Homo sapiens.
In assay [2] the test system is HEK293. The experiment in a line: cells. Format: functional, cell-based. To be noted: Homo sapiens.
In assay [3] the test system is HEK293. The experiment in a line: cells. Format: functional, cell-based. Conditions: Homo sapiens. The source holds these as a separate data set.
The target of assay [4] is Nucleotide-binding oligomerization domain-containing protein 2 (Homo sapiens, UniProt Q9HC29). The experiment in a line: NOD2 signaling inhibitors, cell-based, luminescence, uHTS, HEK293 (AID 1566). The format is functional.
Sequence of Nucleotide-binding oligomerization domain-containing protein 2 (Q9HC29 whole entry, the tested form may be a part): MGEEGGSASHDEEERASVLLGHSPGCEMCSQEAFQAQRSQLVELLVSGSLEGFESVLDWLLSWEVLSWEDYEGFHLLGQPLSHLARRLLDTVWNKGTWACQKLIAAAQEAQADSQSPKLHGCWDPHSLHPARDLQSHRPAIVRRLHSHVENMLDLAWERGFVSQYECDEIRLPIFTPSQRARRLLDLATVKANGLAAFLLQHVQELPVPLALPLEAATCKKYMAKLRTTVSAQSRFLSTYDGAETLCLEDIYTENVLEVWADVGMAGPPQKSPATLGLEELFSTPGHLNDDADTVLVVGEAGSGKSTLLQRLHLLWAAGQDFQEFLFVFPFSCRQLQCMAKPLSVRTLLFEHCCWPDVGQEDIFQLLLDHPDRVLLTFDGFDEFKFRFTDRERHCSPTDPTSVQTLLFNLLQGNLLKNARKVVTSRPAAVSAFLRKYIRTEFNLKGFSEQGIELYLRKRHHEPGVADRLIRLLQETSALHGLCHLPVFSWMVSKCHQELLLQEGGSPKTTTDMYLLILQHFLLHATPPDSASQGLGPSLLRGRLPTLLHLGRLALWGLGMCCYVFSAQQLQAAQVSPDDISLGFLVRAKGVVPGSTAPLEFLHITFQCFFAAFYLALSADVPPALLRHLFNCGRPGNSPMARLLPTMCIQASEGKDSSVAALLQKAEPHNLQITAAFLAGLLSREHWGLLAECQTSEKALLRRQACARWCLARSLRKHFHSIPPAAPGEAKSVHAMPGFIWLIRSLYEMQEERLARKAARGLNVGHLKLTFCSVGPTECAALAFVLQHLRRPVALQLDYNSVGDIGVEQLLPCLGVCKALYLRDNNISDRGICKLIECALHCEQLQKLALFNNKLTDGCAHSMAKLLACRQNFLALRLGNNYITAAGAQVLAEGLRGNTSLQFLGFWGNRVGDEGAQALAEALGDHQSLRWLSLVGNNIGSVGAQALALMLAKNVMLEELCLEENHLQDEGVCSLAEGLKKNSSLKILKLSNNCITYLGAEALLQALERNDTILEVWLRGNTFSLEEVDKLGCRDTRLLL
Assay [5] has as its system HEK293. The experiment in a line: NOD2 signaling inhibitors in MDP-stimulated cells, cell-based, uHTS, luminescence (AID 2001). To be noted: Homo sapiens. Format: functional.
In assay [6] the test system is HEK293. The assay can be described thus: cells. Format: functional, cell-based. To be noted: Homo sapiens. The source holds these as a separate data set.
Assay [7] has as its target T1, Mannose-6-phosphate isomerase (Homo sapiens, UniProt P34949).
T1 sequence (P34949 whole entry): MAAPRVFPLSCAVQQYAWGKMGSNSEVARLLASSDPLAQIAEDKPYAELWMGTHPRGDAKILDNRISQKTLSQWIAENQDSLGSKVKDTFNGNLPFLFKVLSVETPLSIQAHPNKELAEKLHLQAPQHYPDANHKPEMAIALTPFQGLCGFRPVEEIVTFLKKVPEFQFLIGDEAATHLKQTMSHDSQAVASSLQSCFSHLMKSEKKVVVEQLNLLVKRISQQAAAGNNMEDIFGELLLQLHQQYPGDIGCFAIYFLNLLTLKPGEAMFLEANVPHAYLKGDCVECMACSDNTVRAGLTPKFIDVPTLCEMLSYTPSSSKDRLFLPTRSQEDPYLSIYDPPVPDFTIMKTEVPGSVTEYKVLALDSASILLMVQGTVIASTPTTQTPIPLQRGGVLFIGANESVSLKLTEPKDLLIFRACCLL
The assay can be described thus: human PMI inhibitors, high substrate, primary screen, biochemical, fluorescence intensity, high mannose 6-phosphate (AID 1220).

The nature of assay [8]: THP-1 cell cytotoxicity, dose response, cytotoxicity control for non-replicating M. tuberculosis project (AID 489025). The format is functional.
A short description of a further assay: cells. The format is functional.
The next assay has as its target T2, Bcl-2-like protein 10 (Homo sapiens, UniProt Q9HD36).
T2 sequence (Q9HD36 whole entry): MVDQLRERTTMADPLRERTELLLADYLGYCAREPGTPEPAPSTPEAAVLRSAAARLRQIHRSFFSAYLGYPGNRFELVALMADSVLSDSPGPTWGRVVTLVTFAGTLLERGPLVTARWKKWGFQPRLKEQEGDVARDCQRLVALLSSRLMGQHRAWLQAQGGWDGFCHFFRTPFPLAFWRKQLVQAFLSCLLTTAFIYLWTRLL
The experiment in a line: displacers of TR3 peptide from Bcl-B, primary screen, selectivity assay for Bfl-1 inhibitor project, biochemical, fluorescence polarization, FITC-TR3 peptide (AID 748).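 Also: fluorescence polarization from a fluorescein-labelled TR3 peptide binding purified Bcl-B.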

The target of assay [9] is Intestinal-type alkaline phosphatase (Homo sapiens, UniProt P09923). The experiment in a line: Dose Response confirmation of uHTS hits from a small molecule inhibitors of human intestinal alkaline phosphatase via a luminescent assay. [Related pubchem assays (depositor defined):AID2544, AID2574]. The format is functional.
Sequence of Intestinal-type alkaline phosphatase (P09923 whole entry): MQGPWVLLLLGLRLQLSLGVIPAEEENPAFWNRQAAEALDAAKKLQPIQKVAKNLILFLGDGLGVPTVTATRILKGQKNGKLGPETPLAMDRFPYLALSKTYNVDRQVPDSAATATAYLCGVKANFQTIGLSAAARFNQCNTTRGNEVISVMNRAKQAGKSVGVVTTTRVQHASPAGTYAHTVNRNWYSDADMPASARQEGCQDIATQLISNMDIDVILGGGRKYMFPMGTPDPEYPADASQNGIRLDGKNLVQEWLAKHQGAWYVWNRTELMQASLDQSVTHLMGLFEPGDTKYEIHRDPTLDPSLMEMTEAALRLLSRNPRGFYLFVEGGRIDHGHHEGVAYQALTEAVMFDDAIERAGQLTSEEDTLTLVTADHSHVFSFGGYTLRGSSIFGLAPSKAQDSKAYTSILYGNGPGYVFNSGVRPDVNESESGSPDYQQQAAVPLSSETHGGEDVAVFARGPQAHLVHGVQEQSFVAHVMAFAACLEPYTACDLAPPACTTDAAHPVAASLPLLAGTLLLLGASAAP
Another assay has as its target Cytochrome P450 2C9 (Homo sapiens, UniProt P11712).
Another assay concerns the target T3, Aminopeptidase N (Plasmodium falciparum FcB1/Columbia, UniProt O96935).
T3 sequence (O96935 whole entry): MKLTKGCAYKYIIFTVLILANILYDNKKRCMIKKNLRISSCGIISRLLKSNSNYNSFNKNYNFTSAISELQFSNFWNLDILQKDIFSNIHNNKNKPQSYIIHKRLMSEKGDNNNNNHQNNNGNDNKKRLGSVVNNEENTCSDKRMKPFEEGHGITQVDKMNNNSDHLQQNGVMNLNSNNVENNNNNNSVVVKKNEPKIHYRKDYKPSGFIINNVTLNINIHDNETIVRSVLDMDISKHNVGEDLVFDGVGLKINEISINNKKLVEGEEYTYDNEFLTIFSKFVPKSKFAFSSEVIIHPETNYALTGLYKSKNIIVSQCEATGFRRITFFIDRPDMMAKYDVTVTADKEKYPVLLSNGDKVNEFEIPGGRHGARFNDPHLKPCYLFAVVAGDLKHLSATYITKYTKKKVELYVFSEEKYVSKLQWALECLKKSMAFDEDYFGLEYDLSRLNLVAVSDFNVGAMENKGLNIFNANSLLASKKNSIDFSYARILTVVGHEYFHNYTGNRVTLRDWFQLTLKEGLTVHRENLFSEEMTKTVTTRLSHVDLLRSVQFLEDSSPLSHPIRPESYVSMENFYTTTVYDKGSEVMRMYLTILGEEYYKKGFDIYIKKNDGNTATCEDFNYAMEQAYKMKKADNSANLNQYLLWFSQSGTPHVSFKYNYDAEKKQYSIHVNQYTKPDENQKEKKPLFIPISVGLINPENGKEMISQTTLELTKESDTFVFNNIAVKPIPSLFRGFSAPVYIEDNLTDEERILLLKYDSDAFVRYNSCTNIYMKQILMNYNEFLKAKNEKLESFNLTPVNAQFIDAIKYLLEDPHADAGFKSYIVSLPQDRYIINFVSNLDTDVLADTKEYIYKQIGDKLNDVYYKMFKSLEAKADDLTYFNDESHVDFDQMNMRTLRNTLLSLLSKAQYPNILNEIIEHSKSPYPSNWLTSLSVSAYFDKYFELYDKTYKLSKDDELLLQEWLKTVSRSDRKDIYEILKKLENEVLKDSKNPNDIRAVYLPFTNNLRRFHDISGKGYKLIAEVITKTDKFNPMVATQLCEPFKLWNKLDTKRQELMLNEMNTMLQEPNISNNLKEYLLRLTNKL
The assay can be described thus: P. falciparum M1AAP inhibitors, biochemical, fluorogenic H-Leu-NHMec substrate, 1536-well (AID 1445). The arrangement: species or system Plasmodium falciparum 3D7, 3D7.

Assay [10] concerns the target T4, Short transient receptor potential channel 4 (Mus musculus, UniProt Q9QUQ5).
T4 sequence (Q9QUQ5 whole entry): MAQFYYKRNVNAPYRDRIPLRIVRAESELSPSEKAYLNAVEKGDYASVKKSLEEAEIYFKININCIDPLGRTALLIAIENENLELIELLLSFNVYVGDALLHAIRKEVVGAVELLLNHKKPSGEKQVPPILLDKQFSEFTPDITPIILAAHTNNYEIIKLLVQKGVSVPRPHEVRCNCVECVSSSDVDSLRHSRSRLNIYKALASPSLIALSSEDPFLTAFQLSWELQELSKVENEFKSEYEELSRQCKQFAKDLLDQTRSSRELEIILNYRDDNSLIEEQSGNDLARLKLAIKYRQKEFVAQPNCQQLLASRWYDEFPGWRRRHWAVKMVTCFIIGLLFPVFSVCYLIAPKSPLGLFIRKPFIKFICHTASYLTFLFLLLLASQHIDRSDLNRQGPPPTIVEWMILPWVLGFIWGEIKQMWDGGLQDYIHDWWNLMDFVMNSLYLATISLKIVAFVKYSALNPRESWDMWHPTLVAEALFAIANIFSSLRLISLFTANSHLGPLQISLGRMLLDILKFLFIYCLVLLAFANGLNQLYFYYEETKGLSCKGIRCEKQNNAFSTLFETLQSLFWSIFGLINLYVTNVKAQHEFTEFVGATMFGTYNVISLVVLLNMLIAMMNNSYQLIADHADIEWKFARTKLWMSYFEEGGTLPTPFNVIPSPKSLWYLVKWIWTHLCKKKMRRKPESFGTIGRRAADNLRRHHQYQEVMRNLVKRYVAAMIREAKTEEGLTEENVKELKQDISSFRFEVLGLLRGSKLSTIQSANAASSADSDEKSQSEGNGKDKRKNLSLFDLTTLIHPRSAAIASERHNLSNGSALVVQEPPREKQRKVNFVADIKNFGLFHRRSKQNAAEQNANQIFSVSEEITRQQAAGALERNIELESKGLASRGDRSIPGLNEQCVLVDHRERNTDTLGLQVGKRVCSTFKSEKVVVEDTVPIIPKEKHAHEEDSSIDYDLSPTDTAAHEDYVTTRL
The assay can be described thus: mouse TRPC4 channel activators, dose response, cell-based, HEK293 TRPC4/mu-opioid, Fluo-4 calcium (AID 434937). Format: functional.

Assay [11] in a line: P. falciparum late gametocyte killing, dose response, luminescence (AID 1117278).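 Also: gametocytes exposed to compound for 24 hours.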 The format is functional, cell-based.
Assay [12] can be described thus: Jurkat T cell cytotoxicity, dose response, cytotoxicity control for P. falciparum gametocyte viability project, luminescence (AID 1117277).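 Also: potency reflects loss of cellular ATP meaning fewer viable cells.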 Format: functional, cell-based.
The target in assay [13] is T5, Apoptotic protease-activating factor 1 (Homo sapiens, UniProt O14727).
T5 sequence (O14727 whole entry): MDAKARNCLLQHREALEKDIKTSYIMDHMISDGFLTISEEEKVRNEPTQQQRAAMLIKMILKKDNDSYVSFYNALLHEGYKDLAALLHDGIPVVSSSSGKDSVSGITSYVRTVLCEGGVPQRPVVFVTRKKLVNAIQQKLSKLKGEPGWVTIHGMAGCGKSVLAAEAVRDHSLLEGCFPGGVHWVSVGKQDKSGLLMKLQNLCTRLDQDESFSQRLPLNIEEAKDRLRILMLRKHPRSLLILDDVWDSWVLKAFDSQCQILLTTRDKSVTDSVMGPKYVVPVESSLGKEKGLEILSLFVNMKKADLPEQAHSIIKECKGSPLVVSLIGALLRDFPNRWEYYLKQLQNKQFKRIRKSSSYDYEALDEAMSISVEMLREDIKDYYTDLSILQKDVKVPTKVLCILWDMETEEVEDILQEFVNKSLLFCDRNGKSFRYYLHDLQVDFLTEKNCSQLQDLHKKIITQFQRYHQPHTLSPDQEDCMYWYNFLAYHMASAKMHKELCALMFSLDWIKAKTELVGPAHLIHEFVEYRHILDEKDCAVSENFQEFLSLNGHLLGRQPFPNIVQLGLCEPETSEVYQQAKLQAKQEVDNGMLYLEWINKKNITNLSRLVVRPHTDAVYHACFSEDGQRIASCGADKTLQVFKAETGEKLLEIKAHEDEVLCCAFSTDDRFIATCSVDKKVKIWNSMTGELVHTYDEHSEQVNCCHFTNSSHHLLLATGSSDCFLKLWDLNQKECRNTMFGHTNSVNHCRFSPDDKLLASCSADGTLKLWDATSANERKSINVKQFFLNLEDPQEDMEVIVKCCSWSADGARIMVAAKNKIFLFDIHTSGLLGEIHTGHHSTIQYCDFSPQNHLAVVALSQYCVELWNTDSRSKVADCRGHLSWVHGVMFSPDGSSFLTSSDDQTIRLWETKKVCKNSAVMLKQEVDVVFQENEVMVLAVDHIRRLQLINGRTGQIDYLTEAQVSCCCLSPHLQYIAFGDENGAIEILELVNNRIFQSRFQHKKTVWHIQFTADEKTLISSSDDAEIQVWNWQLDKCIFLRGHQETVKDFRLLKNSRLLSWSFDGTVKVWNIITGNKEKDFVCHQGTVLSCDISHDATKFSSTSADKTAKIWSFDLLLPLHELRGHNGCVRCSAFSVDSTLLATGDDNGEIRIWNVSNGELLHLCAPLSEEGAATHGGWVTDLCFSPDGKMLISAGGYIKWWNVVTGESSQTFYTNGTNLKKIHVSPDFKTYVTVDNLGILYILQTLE
The format is functional.

Sequence of Cytochrome P450 2C9 (P11712 whole entry): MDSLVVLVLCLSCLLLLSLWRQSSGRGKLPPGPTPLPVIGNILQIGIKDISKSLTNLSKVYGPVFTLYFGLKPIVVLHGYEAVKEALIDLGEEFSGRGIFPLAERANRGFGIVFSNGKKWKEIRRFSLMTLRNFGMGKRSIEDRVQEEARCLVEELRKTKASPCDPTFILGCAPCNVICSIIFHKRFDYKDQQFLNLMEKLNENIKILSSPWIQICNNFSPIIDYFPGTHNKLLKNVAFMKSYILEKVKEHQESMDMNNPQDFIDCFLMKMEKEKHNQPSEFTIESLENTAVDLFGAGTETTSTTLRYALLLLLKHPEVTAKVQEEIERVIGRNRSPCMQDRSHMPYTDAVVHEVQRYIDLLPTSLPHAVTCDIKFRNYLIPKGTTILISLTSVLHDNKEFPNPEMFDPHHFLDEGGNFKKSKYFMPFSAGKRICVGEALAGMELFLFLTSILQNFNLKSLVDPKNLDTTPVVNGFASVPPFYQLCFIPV

For the compound `COc1ccc(C)cc1NC(=O)CSc1ccc(-c2ccco2)nn1`, the EC50 (in the assay on HEK293 [1]; in assay [4]) was > 20 µM (inactive) throughout. Moreover, the IC50 – broadly, the concentration that gives 50% inhibition – is > 20 µM (inactive) in the assay with HEK293 [2], > 20 µM (inactive) with HEK293 [3], 9.49 µM (inactive) with HEK293 [5] and > 20 µM (inactive) with HEK293 [6].
For `O=C(CCN1CCOCC1)c1ccc(Br)cc1`, the IC50 in assay [7] is 43 µM (active); in “cells”, 11.8 µM (active). For the same compound, the CC50 (in general, the concentration that lowers cell viability or growth by half) in assay [8] was > 40 µM (active).
Take `O=C(COC(=O)c1ccc(S(=O)(=O)NCc2ccco2)cc1)NCC1CCCCC1`: the IC50 on Bcl-2-like protein 10 was > 100 µM (inactive).
Consider `CCn1cnc2sc(C(=O)O)c(C)c2c1=O`, for which the IC50 in assay [9] was > 100 µM (inactive).
For the compound `CCOC(=O)c1c(NC(=O)Cn2cc([N+](=O)[O-])cn2)sc2c1CCC2`, the IC50 in assay [9] is > 100 µM (inactive). Besides, at Cytochrome P450 2C9, the AC50 (in general, the concentration giving half of the maximal activity seen) was 3.55 µM (inconclusive).
`O=C(O)c1ccc(-c2ccc(/C=N/Nc3ccc([N+](=O)[O-])cc3)o2)cc1`: the IC50 on Aminopeptidase N was 43.1 µM (active). Also, in assay [10], the EC50 (in general, the concentration needed to bring the measured effect to its halfway point) was 2.11 µM (active).
In the case of `O=C(Cc1c(F)cccc1Cl)Nc1ncc([N+](=O)[O-])s1`, the CC50 in assay [8] is > 40 µM (active). Moreover, the IC50 was > 109 µM (inactive) in assay [11] and > 83.3 µM (inactive) in assay [12].
For `c1cc2c3c(cccc3c1)NC1(CCCCCC1)N2`, the IC50 at Bcl-2-like protein 10 was 78.4 µM (inactive); in [13] it was 6.58 µM (active).
